Source: patent US20090069356A1, “USE OF ANILINOPYRIMIDINES IN WOOD PROTECTION” (priority 2004, published 2009)
≈ marks a conversion by molar mass, not a printed value.

Assays:
[1] = system: Aspergillus niger and A. carbonarius; details: vineyards; Tjamos et al., Journal of Phytopathology (2004); cited from earlier work
[2] = system: Aureobasidium pullulans P 268 (Ap1); experiment: Poison plate assay; type: cell-based; details: 168 h, evaluated after one week
[3] = system: Aspergillus niger CBS 554.65 (An); experiment: Poison plate assay; type: cell-based; details: CBS554, 168 h, evaluated after one week
[4] = system: Chaetomium globosum CEB 1218.2 (Cg); experiment: Poison plate assay; type: cell-based; design: key: When no fungal growth was observed, the abbreviation “ng” was used; details: evaluated after one week
[5] = system: Humicola grisea MG 28 (Hg); experiment: Poison plate assay; type: cell-based; details: 168 h, evaluated after one week
[6] = system: Aspergillus niger CBS 554.65; experiment: Stick test on treated Scots Pine; type: cell-based; details: 3 weeks exposure
From the text: (§1) [table] […] GA medium was used as a less nutrient-rich alternative to PDA, in order to prevent the test fungi from bypassing the specific mode of action of anilinopyrimidines like cyprodinil, pyrimethanil and […].

[7] = system: Aureobasidium pullulans P 268; experiment: Stick test on treated Scots Pine; type: cell-based; details: 3 weeks exposure
From the text: as §1

[8] = system: Chaetomium globosum ATCC 6205; experiment: Stick test on treated Scots Pine; type: cell-based; details: 3 weeks exposure
From the text: as §1

[9] = system: Cladosporium cladosporioides IHEM 3795; experiment: Stick test on treated Scots Pine; type: cell-based; details: 3 weeks exposure
From the text: as §1

[10] = system: Coniophora puteana BAM 15; experiment: Stick test on treated Scots Pine; type: cell-based; details: 3 weeks exposure
From the text: as §1

[11] = system: Coriolus versicolor CTB 863A; experiment: Stick test on treated Scots Pine; type: cell-based; details: 3 weeks exposure
From the text: as §1

Humicola grisea MG 28 = experiment: Stick test on treated Scots Pine; type: cell-based; details: 3 weeks exposure
From the text: as §1

[12] = system: Trichoderma sp. isol. MB test; experiment: Stick test on treated Scots Pine; type: cell-based; details: 3 weeks exposure
From the text: as §1

[13] = system: Trichoderma viride CBS 189.79; experiment: Stick test on treated Scots Pine; type: cell-based; details: 3 weeks exposure
From the text: as §1

Row | Structure (SMILES) | MIC ([2]; medium CDA) [µg/mL] | MIC ([2]; medium GA) [µg/mL] | MIC ([2]; medium GGA) [µg/mL] | MIC ([3]; medium CDA) [µg/mL] | MIC ([3]; medium GA) [µg/mL] | MIC ([3]; medium GGA) [µg/mL] | MIC value, Cg ([4]; medium CDA) | MIC value, Cg ([4]; medium GA) | MIC value, Cg ([4]; medium GGA) | MIC ([5]; medium CDA) [µg/mL] | MIC ([5]; medium GA) [µg/mL] | MIC ([5]; medium GGA) [µg/mL] | Threshold value, A. niger ([6]; medium GA) [ppm] | Threshold value, A. niger ([6]; medium PDA) | Threshold value, A. pullulans ([7]; medium GA) | Threshold value, A. pullulans ([7]; medium PDA) [ppm] | Threshold value, C. globosum ([8]; medium GA) | Threshold value, C. globosum ([8]; medium PDA) | Threshold value, C. cladosporioides ([9]; medium GA) | Threshold value, C. cladosporioides ([9]; medium PDA) [ppm] | further results
1 | COC(=O)Nc1nc2ccccc2[nH]1 [carbendazim] | – | – | – | – | – | – | – | – | – | – | – | – | – | – | – | – | – | – | – | – | Control of Aspergillus spp. infection [1]: ineffective
2 | Cc1cc(C2CC2)nc(Nc2ccccc2)n1 [cyprodinil, 4-cyclopropyl-6-methyl-N-phenyl-2-pyrimidinamine] | 5 (≈ 22.2 µM) | 10 (≈ 44.4 µM) | 5 (≈ 22.2 µM) | < 0.6 | < 0.6 | < 0.6 | ng | ng | ng | 10 (≈ 44.4 µM) | 10 (≈ 44.4 µM) | 20 (≈ 88.8 µM) | >6400 | >6400 ppm | 3200-6400 ppm | >6400 | 100-200 ppm | 1600-3200 ppm | 800-1600 ppm | >6400 | Threshold value, C. puteana ([10]; medium GA): 3200-6400 ppm; Threshold value, C. puteana ([10]; medium PDA): >6400 ppm; Threshold value, C. versicolor ([11]; medium GA): >6400 ppm; Threshold value, C. versicolor ([11]; medium PDA): >6400 ppm; Threshold value, H. grisea (Humicola grisea MG 28; medium GA): 200-400 ppm; Threshold value, H. grisea (Humicola grisea MG 28; medium PDA): 800-1600 ppm; Threshold value, T. sp. ([12]; medium GA): >6400 ppm; Threshold value, T. sp. ([12]; medium PDA): >6400 ppm; Threshold value, T. viride ([13]; medium GA): >6400 ppm; Threshold value, T. viride ([13]; medium PDA): >6400 ppm
3 | CC#Cc1cc(C)nc(Nc2ccccc2)n1 [mepanipyrim, 4-methyl-6-(prop-1-ynyl)-N-phenyl-2-pyrimidinamine] | 10 (≈ 44.8 µM) | 20 (≈ 89.6 µM) | 20 (≈ 89.6 µM) | < 0.6 | < 0.6 | < 0.6 | ng | ng | ng | 10 (≈ 44.8 µM) | 20 (≈ 89.6 µM) | 20 (≈ 89.6 µM) | >6400 | 1600-3200 ppm | >6400 ppm | >6400 | 200-400 ppm | >6400 ppm | >6400 ppm | >6400 | Threshold value, C. puteana ([10]; medium GA): >6400 ppm; Threshold value, C. puteana ([10]; medium PDA): >6400 ppm; Threshold value, C. versicolor ([11]; medium GA): >6400 ppm; Threshold value, C. versicolor ([11]; medium PDA): >6400 ppm; Threshold value, H. grisea (Humicola grisea MG 28; medium GA): 200-400 ppm; Threshold value, H. grisea (Humicola grisea MG 28; medium PDA): >6400 ppm; Threshold value, T. sp. ([12]; medium GA): >6400 ppm; Threshold value, T. sp. ([12]; medium PDA): >6400 ppm; Threshold value, T. viride ([13]; medium GA): >6400 ppm; Threshold value, T. viride ([13]; medium PDA): >6400 ppm
4 | Cc1cc(C)nc(Nc2ccccc2)n1 [pyrimethanil, 4,6-dimethyl-N-phenyl-2-pyrimidinamine] | 20 (≈ 100 µM) | 20 (≈ 100 µM) | 20 (≈ 100 µM) | < 0.6 | < 0.6 | 20 (≈ 100 µM) | ng | ng | ng | > 20 | > 20 | > 20 | >6400 | >6400 ppm | 1600-3200 ppm | >6400 | 800-1600 ppm | >6400 ppm | 1600-3200 ppm | >6400 | Threshold value, C. puteana ([10]; medium GA): >6400 ppm; Threshold value, C. puteana ([10]; medium PDA): >6400 ppm; Threshold value, C. versicolor ([11]; medium GA): >6400 ppm; Threshold value, C. versicolor ([11]; medium PDA): >6400 ppm; Threshold value, H. grisea (Humicola grisea MG 28; medium GA): 800-1600 ppm; Threshold value, H. grisea (Humicola grisea MG 28; medium PDA): 1600-3200 ppm; Threshold value, T. sp. ([12]; medium GA): >6400 ppm; Threshold value, T. sp. ([12]; medium PDA): >6400 ppm; Threshold value, T. viride ([13]; medium GA): >6400 ppm; Threshold value, T. viride ([13]; medium PDA): >6400 ppm
